From the NIST ThermoML archive (doi:10.1021/je0500375)
Numbers after ± are expanded uncertainties.

Assay: activity coefficient (dimensionless); of the first substance listed, at infinite dilution; xn = mol fraction of the nth substance listed
Details: 101.33 kPa, Liquid, Chromatography, x1 = 0

activity coefficient (298.15 K)	activity coefficient (313.15 K)	activity coefficient (328.15 K)	SMILES
8.27 ± 0.56	8.58 ± 0.59	9 ± 0.61	CCCCCCC [heptane] + CCCCCCCCOS(=O)(=O)[O-].CCCCn1cc[n+](C)c1
1.42 ± 0.09	1.44 ± 0.09	1.45 ± 0.1	c1ccccc1 [benzene] + CCCCCCCCOS(=O)(=O)[O-].CCCCn1cc[n+](C)c1
7.21 ± 0.49	7.59 ± 0.52	7.98 ± 0.54	CCCCCC [hexane] + CCCCCCCCOS(=O)(=O)[O-].CCCCn1cc[n+](C)c1
3.25 ± 0.22	3.42 ± 0.23	3.65 ± 0.25	C#CCCCCCC [1-octyne] + CCCCCCCCOS(=O)(=O)[O-].CCCCn1cc[n+](C)c1
9.63 ± 0.66	9.96 ± 0.68	10.3 ± 0.7	CCCCCCCC [octane] + CCCCCCCCOS(=O)(=O)[O-].CCCCn1cc[n+](C)c1
5.43 ± 0.37	5.52 ± 0.38	5.68 ± 0.39	C1CCCCCC1 [cycloheptane] + CCCCCCCCOS(=O)(=O)[O-].CCCCn1cc[n+](C)c1
7.38 ± 0.5	7.53 ± 0.51	7.88 ± 0.54	C=CCCCCCC [oct-1-ene] + CCCCCCCCOS(=O)(=O)[O-].CCCCn1cc[n+](C)c1
6.63 ± 0.45	7.14 ± 0.49		CCCCC [pentane] + CCCCCCCCOS(=O)(=O)[O-].CCCCn1cc[n+](C)c1
2.25 ± 0.15	2.38 ± 0.16	2.56 ± 0.17	C#CCCCC [1-hexyne] + CCCCCCCCOS(=O)(=O)[O-].CCCCn1cc[n+](C)c1
4.92 ± 0.34	5.02 ± 0.34	5.17 ± 0.35	C1CCCCC1 [cyclohexane] + CCCCCCCCOS(=O)(=O)[O-].CCCCn1cc[n+](C)c1
0.386 ± 0.033	0.369 ± 0.033	0.36 ± 0.033	CO [methanol] + CCCCCCCCOS(=O)(=O)[O-].CCCCn1cc[n+](C)c1
2.66 ± 0.18	2.85 ± 0.19	3.08 ± 0.21	C#CCCCCC [1-heptyne] + CCCCCCCCOS(=O)(=O)[O-].CCCCn1cc[n+](C)c1
5.43 ± 0.37	5.76 ± 0.39	6.13 ± 0.42	C=CCCCC [hex-1-ene] + CCCCCCCCOS(=O)(=O)[O-].CCCCn1cc[n+](C)c1
4.09 ± 0.28	4.24 ± 0.29	4.39 ± 0.3	C1CCCC1 [cyclopentane] + CCCCCCCCOS(=O)(=O)[O-].CCCCn1cc[n+](C)c1

SMILES	activity coefficient (298.15 K)	activity coefficient (313.15 K)	activity coefficient (328.15 K)
ClC(Cl)(Cl)Cl [tetrachloromethane] + CCCCCCCCOS(=O)(=O)[O-].CCCCn1cc[n+](C)c1	1.65 ± 0.11	1.74 ± 0.12	1.85 ± 0.12
Cc1ccccc1 [toluene] + CCCCCCCCOS(=O)(=O)[O-].CCCCn1cc[n+](C)c1	1.98 ± 0.13	2.02 ± 0.14	2.08 ± 0.14
